Tests used:
[1] = tested on: New Zealand white rabbits fed a high fat diet; assay: High fat diet-fed New Zealand white rabbit model, daily pentadecanoic acid in diet; type: in vivo
Description: This study examined the impact of daily oral administration of synthetic pentadecanoic acid (C15:0) on serum globulins, cholesterol, and liver fibrosis in an animal model fed a high fat diet. Sixteen New Zealand white rabbits were fed a high fat diet (HFD) (4% peanut oil and 0.5% cholesterol) for 2 weeks. Study rabbits were then divided into the following two groups of eight: high fat diet controls, and high fat diet animals treated with pentadecanoic acid (35 mg/kg body weight). The test article was a synthetic powder form stable at room temperature and purchased from Sigma-Aldrich (Products W433400 (≥99% pentadecanoic acid). The test article was provided daily in the diet for 11 weeks (77 days) while continuing ad libitum access to the HFD. Total cholesterol, platelets, and globulins were measured at Days 0 and 77.
On Day 77, liver tissues from HFD controls and pentadecanoic acid-treated animals were collected and scored histologically for fibrosis by a board-certified veterinary pathologist. Liver tissues were processed into paraffin-embedded blocks for H&E and picrosirius red staining for fibrosis (collagen deposition). Whole picrosirius red stained liver slides were scanned using Aperio ScanScope AT2 at 20×. Fibrosis stages were defined as follows: 0=none, 1=persinusoidal or periportal, 2=perisinusoidal and portal/periportal, 3=bridging fibrosis, 4=cirrhosis. Data from the treated group were compared to the control group using Wilcoxon rank sum analyses. Significance was defined as a P value less than or equal to 0.05.

[2] = tested on: obese mouse model (C57BL/6J mice fed a high fat diet); assay: High fat diet obese mouse model, daily oral pentadecanoic acid; type: in vivo
Description: This study examined the impact of daily oral administration of synthetic pentadecanoic acid (C15:0) on total and LDL cholesterol in an obese mouse model. Twenty C57BL/6J mice were fed a high fat diet (HFD) (D12492, 60% kcals fat) for 8 weeks. Study mice were then divided into the following two groups of ten: vehicle controls and pentadecanoic acid—treated (5 mg/kg body weight). The test article was a synthetic powder form stable at room temperature and purchased from Sigma-Aldrich (Products W433400 (≥99% C15:0). The test article was provided daily via gastric gavage for 12 weeks (84 days) while continuing ad libitum access to the HFD. Total cholesterol and low-density lipoprotein (LDL) cholesterol were measured at Day 0 and Day 84. Data from the treated group were compared to the control group using Wilcoxon rank sum analyses. Significance was defined as a P value less than or equal to 0.05.

[3] = tested on: CD19+ B cells and peripheral blood mononuclear cells stimulated with α-IgM and TCR ligands; assay: First cell-based system: T cell-dependent activation of B cells (allergy); design: species or system human
Description: This study examined the impact of synthetic pentadecanoic acid (C15:0) at four concentrations (740 nm and 2.2, 6.7, and 20 μM) on three primary human cell-based activity systems that were exposed to agents that mimicked allergic, thrombotic, and fibrotic disease states. In general, protein-based biomarkers in these systems were measured and compared with controls. Pentadecanoic acid was considered ‘active’ when 2 or more consecutive concentrations changed a given biomarker in the same direction relative to vehicle controls, were outside of the significance envelope of internal controls, and had at least one concentration with an effect size greater than 20% (log 10 ratio >0.1).
The first cell-based system recapitulated T cell-dependent activation of B cells that occurs in germinal centers to mimic allergy disease states. CD19^+ B cells and peripheral blood mononuclear cells were stimulated with α-IgM and TCR ligands and incubated with pentadecanoic acid for 168 hours. In addition to controls that were not treated with pentadecanoic acid, a negative, non-stimulated system was also included. Secreted IgG was measured and compared with controls.

## CCCCCCCCCCCCCCC(=O)O [Pentadecanoic acid, pentadecanoic acid]
[1]; 35 mg/kg daily in diet, 11 weeks
  Early mortalities: no early mortalities
[1]; 35 mg/kg daily in diet, 11 weeks, HFD rabbits
  Tolerability of test article: tolerated the test article throughout the study
[1]; 35 mg/kg daily oral for 11 weeks, histology, picrosirius red
  Stage 3 bridging fibrosis in liver (FIG. 1): lack of Stage 3 bridging fibrosis
[1]; Day 77, 35 mg/kg, HFD rabbits
  Platelets compared with HFD control group: lower
[1]; Index at Day 77 (head), 35 mg/kg dose daily in diet 11 weeks, HFD rabbits, P 0.004
  Globulins: 1.3 ± 0.7 G/dl
[1]; Index at Day 77 (head), 35 mg/kg dose daily in diet 11 weeks, HFD rabbits, plasma, P 0.024
  Cholesterol: 2516 ± 746 mg/dL
[1]; Index at Day 77 (head), 35 mg/kg dose, n = 8, stage score 0-4, P 0.016
  Liver Fibrosis Stage: 2.3 ± 0.5
[2]; 5 mg/kg daily gavage, 12 weeks, HFD mice
  Tolerability of test article: tolerated the test article throughout the study
[2]; Index at Day 84, 5 mg/kg dose daily via gastric gavage for 12 weeks, HFD mice, P 0.032 vs HFD control
  Total Cholesterol: 183 + 25 mg/dl
[2]; Index at Day 84, 5 mg/kg dose daily via gastric gavage for 12 weeks, HFD mice, P 0.036 vs HFD control
  LDL Cholesterol: 6.3 ± 3.6 mg/dL
[2]; oral daily for 12 weeks, obese mice on high fat diet
  Percent body weight gain compared to control mice on high fat diet alone: lower percent body weight gain
[2]; treated group, 5 mg/kg daily gavage, 12 weeks
  Early mortalities: no early mortalities
[3]; 168 hours incubation, 6.7 μM and 20 μM bioactive, vs controls
  Secreted IgG (FIG. 2): dose-dependent decreases
[3]; all four concentrations (740 nm and 2.2, 6.7, and 20 μM)
  Cytotoxicity: non-cytotoxic

— patent publication US20240016773A1, “COMPOSITIONS AND METHODS FOR DIAGNOSIS AND TREATMENT OF CONDITIONS RELATED TO AGING” (EPITRACKER, INC., priority 2018, published 2024)
